{
  "source": "patent US12509454B2",
  "about": "“Thiadiazolyl derivatives” (IDEAYA Biosciences, Inc., priority 2019, dated 2025)",
  "note": "pIC50: −log10 of the molar value.",
  "data": [
    {"target": "Pol theta (1-899) (Homo sapiens (Human), UniProt O75417)", "sequence (O75417 1-899)": "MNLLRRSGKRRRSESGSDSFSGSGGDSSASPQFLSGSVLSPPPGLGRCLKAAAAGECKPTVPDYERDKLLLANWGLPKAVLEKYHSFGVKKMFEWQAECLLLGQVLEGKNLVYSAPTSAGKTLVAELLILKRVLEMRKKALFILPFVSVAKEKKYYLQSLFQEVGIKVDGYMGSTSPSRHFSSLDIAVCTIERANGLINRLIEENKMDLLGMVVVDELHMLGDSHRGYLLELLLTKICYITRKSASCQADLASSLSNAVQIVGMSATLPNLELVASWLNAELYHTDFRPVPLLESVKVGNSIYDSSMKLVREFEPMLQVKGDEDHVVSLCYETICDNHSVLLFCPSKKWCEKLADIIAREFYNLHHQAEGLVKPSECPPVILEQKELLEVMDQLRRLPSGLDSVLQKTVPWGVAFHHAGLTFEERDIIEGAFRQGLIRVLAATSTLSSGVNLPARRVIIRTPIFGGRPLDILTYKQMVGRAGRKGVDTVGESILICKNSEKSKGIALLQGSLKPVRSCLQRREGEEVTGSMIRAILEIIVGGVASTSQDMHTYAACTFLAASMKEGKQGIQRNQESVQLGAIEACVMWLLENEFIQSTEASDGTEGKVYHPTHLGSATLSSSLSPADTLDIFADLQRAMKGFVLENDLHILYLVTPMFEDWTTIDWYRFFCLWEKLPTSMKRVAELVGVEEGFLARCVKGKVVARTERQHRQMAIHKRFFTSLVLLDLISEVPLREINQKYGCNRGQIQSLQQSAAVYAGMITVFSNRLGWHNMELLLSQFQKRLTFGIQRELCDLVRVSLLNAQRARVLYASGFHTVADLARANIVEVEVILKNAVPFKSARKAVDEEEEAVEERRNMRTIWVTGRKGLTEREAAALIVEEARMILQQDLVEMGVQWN", "assay": "Pol theta ATPase activity, NADH oxidation-coupled enzymatic assay", "format": "biochemical", "details": "Pol theta (1-899) 10 nM, ATP, dT50 ssDNA, absorbance 340 nm, 10-point dilution series; read-out: ATPase NADH coupling:Standard Screening:hPolQ IC50", "method_in_brief": "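Pol theta (1-899), 10 nM, preincubated 15 min at RT with 10-point compound series in Tris pH 7.80/KCl/MgCl2 buffer, then given 100 μM ATP plus 300 nM dT50 ssDNA with PK/LDH-coupled NADH oxidation. A340 followed for 30 min; rate slopes fitted with a four-parameter model for IC50.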", "values": [
      {"smiles": "COc1ccccc1-c1cn2ccnc2cc1C(=O)Nc1nnc(OCc2ccc(Cl)cc2)s1", "note": "[Example 161, N-(5-((4-chlorobenzyl)oxy)-1,3,4-thiadiazol-2-yl)-6-(2-methoxyphenyl)imidazo[1,2-a]pyridine-7-carboxamide]", "pIC50": "≥ 6.70"},
      {"smiles": "Cc1n[nH]cc1-c1cnccc1C(=O)Nc1nnc(OCc2ccc(Cl)cc2)s1", "note": "[Example 162, N-(5-((4-chlorobenzyl)oxy)-1,3,4-thiadiazol-2-yl)-3-(3-methyl-1H-pyrazol-4-yl)isonicotinamide]", "pIC50": "≥ 6.70"},
      {"smiles": "COc1ccccc1-c1cc(CCC(N)=O)ncc1C(=O)Nc1nnc(OCc2ccc(Cl)cc2)s1", "note": "[Example 163, 6-(3-amino-3-oxopropyl)-N-(5-((4-chlorobenzyl)oxy)-1,3,4-thiadiazol-2-yl)-4-(2-methoxyphenyl)nicotinamide]", "pIC50": "≥ 6.70"},
      {"smiles": "COc1ccccc1-c1cc(CCC#N)ncc1C(=O)Nc1nnc(OCc2ccc(Cl)cc2)s1", "note": "[Example 164, N-[5-[(4-chlorophenyl)methoxy]-1,3,4-thiadiazol-2-yl]-6-(2-cyanoethyl)-4-(2-methoxyphenyl)pyridine-3-carboxamide]", "pIC50": "≥ 6.70"},
      {"smiles": "O=C(Nc1nnc(OCc2ccc(Cl)cc2)s1)c1ccncc1-c1ccccc1OC1CC(O)C1", "note": "(stereo not shown) [Example 165, N-(5-((4-chlorobenzyl)oxy)-1,3,4-thiadiazol-2-yl)-3-(2-(3-hydroxycyclobutoxy)phenyl)isonicotinamide]", "pIC50": "≥ 6.70"},
      {"smiles": "COc1ccccc1-c1cc(CCO)ncc1C(=O)Nc1nnc(OCc2ccc(Cl)cc2)s1", "note": "[Example 166, N-(5-((4-chlorobenzyl)oxy)-1,3,4-thiadiazol-2-yl)-6-(2-hydroxyethyl)-4-(2-methoxyphenyl)nicotinamide]", "pIC50": "≥ 6.70"},
      {"smiles": "O=C(Nc1nnc(OCc2ccc(Cl)cn2)s1)c1cncn1-c1ccccc1OC(F)F", "note": "[Example 168, N-[5-[(5-chloropyridin-2-yl)methoxy]-1,3,4-thiadiazol-2-yl]-3-[2-(difluoromethoxy)phenyl]imidazole-4-carboxamide]", "pIC50": "≥ 6.70"},
      {"smiles": "Cc1nn(C)cc1-c1cnccc1C(=O)Nc1nnc(OCc2ccc(Cl)cc2)s1", "note": "[Example 169, N-[5-[(4-chlorophenyl)methoxy]-1,3,4-thiadiazol-2-yl]-3-(1,3-dimethylpyrazol-4-yl)pyridine-4-carboxamide]", "pIC50": "≥ 6.70"},
      {"smiles": "COc1ccccc1-c1cc(CO)ncc1C(=O)Nc1nnc(OCc2ccc(Cl)cn2)s1", "note": "[Example 170, N-[5-[(5-chloropyridin-2-yl)methoxy]-1,3,4-thiadiazol-2-yl]-6-(hydroxymethyl)-4-(2-methoxyphenyl)pyridine-3-carboxamide]", "pIC50": "≥ 6.70"},
      {"smiles": "O=C(Nc1nnc(OCc2ccc(Cl)cc2)s1)c1ccncc1-c1ccccc1CCO", "note": "[Example 171, N-(5-((4-chlorobenzyl)oxy)-1,3,4-thiadiazol-2-yl)-3-(2-(2-hydroxyethyl)phenyl)isonicotinamide]", "pIC50": "≥ 6.70"},
      {"smiles": "N#Cc1ccc(OC2COC2)c(-c2cnccc2C(=O)Nc2nnc(OCc3ccc(Cl)cc3)s2)c1", "note": "[Example 172, N-(5-((4-chlorobenzyl)oxy)-1,3,4-thiadiazol-2-yl)-3-(5-cyano-2-(oxetan-3-yloxy)phenyl)isonicotinamide]", "pIC50": "≥ 6.70"},
      {"smiles": "O=C(Nc1nnc(OCc2ccc(Cl)cn2)s1)c1ccncc1N1CCOC2(CC2)C1", "note": "[Example 173, N-[5-[(5-chloropyridin-2-yl)methoxy]-1,3,4-thiadiazol-2-yl]-3-[4-oxa-7-azaspiro[2.5]octan-7-yl]pyridine-4-carboxamide]", "pIC50": "6.30 to 6.70"},
      {"smiles": "COc1ccccc1-c1cnccc1C(=O)Nc1nnc(OCc2ccccc2)s1", "note": "[Example 174, N-(5-(benzyloxy)-1,3,4-thiadiazol-2-yl)-3-(2-methoxyphenyl)isonicotinamide]", "pIC50": "≥ 6.70"},
      {"smiles": "O=C(Nc1nnc(OCc2ccc(Cl)cc2)s1)c1ccncc1N1C2CCC1COC2", "note": "[Example 176, N-[5-[(4-chlorophenyl)methoxy]-1,3,4-thiadiazol-2-yl]-3-[3-oxa-8-azabicyclo[3.2.1]octan-8-yl]pyridine-4-carboxamide]", "pIC50": "≥ 6.70"},
      {"smiles": "N#Cc1cc(N2CCOC3(CC3)C2)c(C(=O)Nc2nnc(OCc3ccc(Cl)cc3)s2)cn1", "note": "[Example 177, N-[5-[(4-chlorophenyl)methoxy]-1,3,4-thiadiazol-2-yl]-6-cyano-4-[4-oxa-7-azaspiro[2.5]octan-7-yl]pyridine-3-carboxamide]", "pIC50": "≥ 6.70"},
      {"smiles": "COc1ccccc1-c1cnccc1C(=O)Nc1nnc(OCc2cccc3[nH]ncc23)s1", "note": "[Example 181, N-[5-(1H-indazol-4-ylmethoxy)-1,3,4-thiadiazol-2-yl]-3-(2-methoxyphenyl)pyridine-4-carboxamide]", "pIC50": "≥ 6.70"},
      {"smiles": "O=C(Nc1nnc(OCc2ccc(Cl)cn2)s1)c1ccncc1-c1c(F)cccc1OC(F)F", "note": "[Example 182, N-(5-((5-chloropyridin-2-yl)methoxy)-1,3,4-thiadiazol-2-yl)-3-(2-(difluoromethoxy)-6-fluorophenyl)isonicotinamide]", "pIC50": "≥ 6.70"},
      {"smiles": "COc1cccc(F)c1-c1cc(C)ncc1C(=O)Nc1nnc(OCc2ccc(Cl)cc2)s1", "note": "[Example 183, N-(5-((4-chlorobenzyl)oxy)-1,3,4-thiadiazol-2-yl)-4-(2-fluoro-6-methoxyphenyl)-6-methylnicotinamide]", "pIC50": "≥ 6.70"},
      {"smiles": "COc1cccc(F)c1-c1cc(C)ncc1C(=O)Nc1nnc(OCc2ccc(Cl)cn2)s1", "note": "[Example 184, N-(5-((5-chloropyridin-2-yl)methoxy)-1,3,4-thiadiazol-2-yl)-4-(2-fluoro-6-methoxyphenyl)-6-methylnicotinamide]", "pIC50": "≥ 6.70"},
      {"smiles": "COc1cccc(F)c1-c1cc(C#N)ncc1C(=O)Nc1nnc(OCc2ccc(Cl)cc2)s1", "note": "[Example 185, N-(5-((4-chlorobenzyl)oxy)-1,3,4-thiadiazol-2-yl)-6-cyano-4-(2-fluoro-6-methoxyphenyl)nicotinamide]", "pIC50": "≥ 6.70"},
      {"smiles": "COc1cccc(F)c1-c1cc(C#N)ncc1C(=O)Nc1nnc(OCc2ccc(Cl)cn2)s1", "note": "[Example 186, N-(5-((5-chloropyridin-2-yl)methoxy)-1,3,4-thiadiazol-2-yl)-6-cyano-4-(2-fluoro-6-methoxyphenyl)nicotinamide]", "pIC50": "≥ 6.70"},
      {"smiles": "C[C@H]1COC[C@H](C)N1c1cnccc1C(=O)Nc1nnc(OCc2ccc(Cl)cn2)s1", "note": "[Example 187, N-(5-((5-chloropyridin-2-yl)methoxy)-1,3,4-thiadiazol-2-yl)-3-((3S,5S)-3,5-dimethylmorpholino)isonicotinamide]", "pIC50": "≥ 6.70"},
      {"smiles": "C[C@@H]1COC[C@@H](C)N1c1cnccc1C(=O)Nc1nnc(OCc2ccc(Cl)cn2)s1", "note": "[Example 188, N-(5-((5-chloropyridin-2-yl)methoxy)-1,3,4-thiadiazol-2-yl)-3-((3R,5R)-3,5-dimethylmorpholino)isonicotinamide]", "pIC50": "≥ 6.70"},
      {"smiles": "Cc1cc(-c2c(F)cccc2OC(F)F)c(C(=O)Nc2nnc(OCc3ccc(Cl)cc3)s2)cn1", "note": "[Example 189, N-(5-((4-chlorobenzyl)oxy)-1,3,4-thiadiazol-2-yl)-4-(2-(difluoromethoxy)-6-fluorophenyl)-6-methylnicotinamide]", "pIC50": "≥ 6.70"},
      {"smiles": "Cc1cc(-c2c(F)cccc2OC(F)F)c(C(=O)Nc2nnc(OCc3ccc(Cl)cn3)s2)cn1", "note": "[Example 190, N-(5-((5-chloropyridin-2-yl)methoxy)-1,3,4-thiadiazol-2-yl)-4-(2-(difluoromethoxy)-6-fluorophenyl)-6-methylnicotinamide]", "pIC50": "≥ 6.70"},
      {"smiles": "COc1ccccc1-c1cnc(C)cc1C(=O)Nc1nnc(OCc2ccc(Cl)cn2)s1", "note": "[Example 191, N-[5-[(5-chloropyridin-2-yl)methoxy]-1,3,4-thiadiazol-2-yl]-5-(2-methoxyphenyl)-2-methylpyridine-4-carboxamide]", "pIC50": "6.30 to 6.70"},
      {"smiles": "N#Cc1cc(-c2c(F)cccc2OC(F)F)c(C(=O)Nc2nnc(OCc3ccc(Cl)cc3)s2)cn1", "note": "[Example 192, N-(5-((4-chlorobenzyl)oxy)-1,3,4-thiadiazol-2-yl)-6-cyano-4-(2-(difluoromethoxy)-6-fluorophenyl)nicotinamide]", "pIC50": "≥ 6.70"},
      {"smiles": "COc1cnccc1-c1cc(C)ncc1C(=O)Nc1nnc(OCc2ccc(Cl)cn2)s1", "note": "[Example 194, N-(5-((5-chloropyridin-2-yl)methoxy)-1,3,4-thiadiazol-2-yl)-3′-methoxy-6-methyl-[4,4′-bipyridine]-3-carboxamide]", "pIC50": "≥ 6.70"},
      {"smiles": "COc1c(CO)cccc1-c1cc(C)ncc1C(=O)Nc1nnc(OCc2ccc(Cl)cn2)s1", "note": "[Example 195, N-[5-[(5-chloropyridin-2-yl)methoxy]-1,3,4-thiadiazol-2-yl]-4-[3-(hydroxymethyl)-2-methoxyphenyl]-6-methylpyridine-3-carboxamide]", "pIC50": "≥ 6.70"},
      {"smiles": "Cc1cc(-c2c(C)n[nH]c2C)c(C(=O)Nc2nnc(OCc3ccc(Cl)cn3)s2)cn1", "note": "[Example 196, N-(5-((5-chloropyridin-2-yl)methoxy)-1,3,4-thiadiazol-2-yl)-4-(3,5-dimethyl-1H-pyrazol-4-yl)-6methylnicotinamide]", "pIC50": "≥ 6.70"},
      {"smiles": "COc1ccccc1-c1cc(C)ncc1C(=O)Nc1nnc(OCCc2ccc(Cl)cn2)s1", "note": "[Example 197, N-(5-(2-(5-chloropyridin-2-yl)ethoxy)-1,3,4-thiadiazol-2-yl)-4-(2-methoxyphenyl)-6-methylnicotinamide]", "pIC50": "6.30 to 6.70"},
      {"smiles": "Cc1cc(-c2cccc3c2OCCN3)c(C(=O)Nc2nnc(OCc3ccc(Cl)cn3)s2)cn1", "note": "[Example 198, N-(5-((5-chloropyridin-2-yl)methoxy)-1,3,4-thiadiazol-2-yl)-4-(3,4-dihydro-2H-benzo[b][1,4]oxazin-8-yl)-6-methylnicotinamide]", "pIC50": "≥ 6.70"},
      {"smiles": "COc1ccccc1-c1cc(C)ncc1C(=O)Nc1nnc(OCc2cc(F)ccn2)s1", "note": "[Example 199, N-(5-((4-fluoropyridin-2-yl)methoxy)-1,3,4-thiadiazol-2-yl)-4-(2-methoxyphenyl)-6-methylnicotinamide]", "pIC50": "6.30 to 6.70"},
      {"smiles": "COc1ccc(CO)cc1-c1cc(C)ncc1C(=O)Nc1nnc(OCc2ccc(Cl)cn2)s1", "note": "[Example 200, N-(5-((5-chloropyridin-2-yl)methoxy)-1,3,4-thiadiazol-2-yl)-4-(5-(hydroxymethyl)-2-methoxyphenyl)-6-methylnicotinamide]", "pIC50": "≥ 6.70"}
    ]}
  ]
}
